Laboratory results taken from patent US9200046B2, “Reporter system for high throughput screening of compounds and uses thereof” (priority 2011, dated 2015).
Entries after “also recorded” stand apart in the source; their conditions may differ. Read-outs that look alike come from different tables or passages of the source.

What was measured:
primary immature neurons = experiment: Astrocyte-dependent neuroprotection in astrocyte-neuron coculture with HCA; format: cell-based, rat; conditions: astrocytes pretreated 24 hr, neurons plated with HCA
astrocytes = experiment: Intracellular GSH levels in astrocytes; format: cell-based, rat
FLAG-Keap1 = target: T1, FLAG-Keap1 (Homo sapiens, UniProt Q14145); format: cell-based
T1 construct: expressed in transfected cells; host or cells: HEK293 (transient expression)
Protocol: FIG. 12. Supporting to FIG. 5. […] A: structural formulas of the compounds used; B: competition with Keap1 labeling. HEK293 cells transiently expressing FLAG-Keap1 were incubated with 200 μM competing compounds (sulforaphane, fisetin, quercetin, gedunin, TBHQ, ciclopirox, geldanamycin) and then further incubated with 10 μM sulfoxythiocarbate-alkyne (STCA) for 30 min at 37° C. FLAG-Keap1 was immunoprecipitated from cell lysates, subjected to click reaction with biotin azide on beads, and eluted with SDS-loading buffer. […] All values are presented as mean±SEM.
Keap1 labeling experiments were performed as described previously (AHN et al., Proc. Natl. […]. USA., 107: 9590-9595 (2010)) with following modifications. HEK293 cells transiently expressing FLAG-Keap1 were incubated with 200 μM competing compounds (sulforaphane, fisetin, quercetin, gedunin, TBHQ, ciclopirox, geldanamycin) in serum-free DMEM for 1 h. After washing with PBS, cells were further incubated with 10 μM sulfoxythiocarbate-alkyne (STCA) for 30 min at 37° C. FLAG-Keap1 was immunoprecipitated from cell lysates, subjected to click reaction with biotin azide on beads, and eluted with SDS-loading buffer. Eluted samples were immunoblotted with Streptavidin-HRP (Pierce) and anti-FLAG antibodies (Sigma).

Immature neurons [1] = tested on: Immature neurons
[2] = tested on: Neh2-luciferase fusion protein in SH-SY5Y cells; format: cell-based, human; conditions: for lag-period of reporter activation: time-course of Neh2-luc activation
Protocol: Cells were plated at the density of 25,000 cell per well using a WellMate multichannel dispenser from Matrix (Thermo Fisher Scientific) and grown overnight on DMEM/F12+GlutaMAX (100 μl per well). Then the inhibitor was added, and the plates were incubated for a fixed time interval; the medium was removed, cells lysed in 20 μL (out of which 4 μL were taken for protein measurement), then BrightGlo™ reagent (Promega) was added to the wells and luciferase activity measured on a luminometer Lmax11384 (Molecular Devices). The reporter activation was normalized to the background luminescence divided by protein concentration. Kinetics of reporter activation were measured by adding varied fixed concentrations of an inhibitor at different time points followed by simultaneous cell lysis, protein determination, and luciferase activity measurement in the whole 96-well plate; this assay format minimizes experimental error originating from the well-known instability of luciferase reagent.

Immature neurons [3] = experiment: Neuronal viability of isolated immature neurons treated with compounds; conditions: 24 hours
Nrf2-Keap1 complex = Nrf2-Keap1 complex (Homo sapiens, UniProt Q14145); experiment: cell-based; format: cell-based; conditions: for activation at 16 µM / activation at 32 µM: 3 h; for activation at 16 µM: read-out: Activation 100 nL; for activation at 32 µM: read-out: Activation 200 nL
ARE-luc reporter = ARE-luc reporter time-course; format: cell-based, human
Protocol: Human neuroblastoma SH-SY5Y cells were transfected with 1 mg of pcDNA3-Neh2LUC10, pcDNA3-ODDLUC8, pcDNA3-LUC3, and ARE-LUC/pcDNA3 (5:1) by using Lipofectamine—2000 (Invitrogen). Transfected cells were grown in the presence of 500 mg/ml Geneticin (GIBCO-Invitrogen) on DMEM/F12+ GlitaMAX (Dulbecco's modified Eagle medium Nutrient Mixture F-12 (Ham)(1:1) 1×, GIBCO 10565) medium.

[4] = 200 μM competing compound, HEK293 cells, then 10 μM STCA 30 min
[5] = Table 2, 100 nL compound, screen run at 16 and 32 μM, 3 hr
[6] = Table 2, 200 nL compound, screen run at 16 and 32 μM, 3 hr
[7] = Table 1A, 100 nL compound, screen run at 16 and 32 μM, 3 hr
[8] = Table 1A, 200 nL compound, screen run at 16 and 32 μM, 3 hr

T1 sequence (Q14145 whole entry): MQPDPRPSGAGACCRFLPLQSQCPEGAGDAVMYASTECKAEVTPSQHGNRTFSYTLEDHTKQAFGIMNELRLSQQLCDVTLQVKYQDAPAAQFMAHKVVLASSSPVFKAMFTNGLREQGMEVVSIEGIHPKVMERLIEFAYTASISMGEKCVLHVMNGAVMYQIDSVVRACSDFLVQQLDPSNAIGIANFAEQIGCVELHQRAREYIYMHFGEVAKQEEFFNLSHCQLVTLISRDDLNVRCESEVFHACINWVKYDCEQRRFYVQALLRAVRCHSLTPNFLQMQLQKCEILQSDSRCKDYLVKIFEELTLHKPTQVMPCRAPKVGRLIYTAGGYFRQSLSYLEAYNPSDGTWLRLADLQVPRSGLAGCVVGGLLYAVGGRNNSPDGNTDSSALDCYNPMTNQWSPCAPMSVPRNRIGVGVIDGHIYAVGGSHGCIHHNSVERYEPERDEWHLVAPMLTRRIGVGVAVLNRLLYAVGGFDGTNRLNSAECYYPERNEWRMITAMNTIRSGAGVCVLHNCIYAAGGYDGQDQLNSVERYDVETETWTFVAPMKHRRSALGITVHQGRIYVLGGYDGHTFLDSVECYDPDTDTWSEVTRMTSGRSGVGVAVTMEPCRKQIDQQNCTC
Chain of Nrf2-Keap1 complex (Q14145 whole entry, one chain of several): as the sequence (Q14145 whole entry) above

| Structure (SMILES) | competition with Keap1 labeling by STCA (FLAG-Keap1; [4]) | type of reporter activation by time-course [2] | activation at 16 µM (Nrf2-Keap1 complex) [%] | activation at 32 µM (Nrf2-Keap1 complex) [%] | 100 nL (luminescence) (Nrf2-Keap1 complex; [5]) | 200 nL (luminescence) (Nrf2-Keap1 complex; [6]) | also measured |
| --- | --- | --- | --- | --- | --- | --- | --- |
| CC(Cc1ccc(O)c(O)c1)C(C)Cc1ccc(O)c(O)c1 (stereo not shown) [NDGA, nordihydroguaiaretic acid] | poorly compete with Keap1 labeling | activation via a switch or receptor | – | – | – | – | astrocyte-dependent neuroprotection (primary immature neurons): induced significant neuroprotection; GSH in astrocytes (astrocytes; 24 hr, 10 μM NDGA, 24 μM gedunin, 20 μM fisetin): clearly show a boost in GSH; toxicity in isolated neurons (Immature neurons [1]): did not induce toxicity in isolated neurons |
| O=c1c(O)c(-c2ccc(O)c(O)c2)oc2cc(O)cc(O)c12 [quercetin, 3,5,7,3′,4′-pentahydroxyflavone] | very modest competition | immediate activation but gradual stabilization over time | – | – | – | – | – |
| O=c1c(O)c(-c2ccc(O)c(O)c2)oc2cc(O)ccc12 [FISETIN] | very modest competition; also recorded: poorly compete with Keap1 labeling | activation via a switch or receptor | 224 | 38 | 3360 | 1320 | toxicity in isolated neurons (Immature neurons [3]): did not induce toxicity in isolated neurons; astrocyte-dependent neuroprotection (primary immature neurons): induced significant neuroprotection; GSH in astrocytes (astrocytes): does not show the same level of enhancement |
| Oc1ccccc1O [catechol, o-catechol] | – | – | – | – | – | – | lag-period of reporter activation [2]: 20 min |
| CC(C)(C)c1cc(O)ccc1O [TBHQ, tert-butylhydroquinone, reference compound] | very modest competition; also recorded: competes very poorly | immediate activation but gradual stabilization over time | – | – | – | – | toxicity in isolated neurons (Immature neurons [1]): neurotoxic effects; activation of Neh2-luc reporter ([2]; positive control, FIG. 1B): more than 10 fold; delay of ARE-luc reporter response (ARE-luc reporter): 3 h |
| CC(=O)O[C@@H]1C[C@H]2C(C)(C)C(=O)C=C[C@]2(C)[C@H]2CC[C@@]3(C)[C@H](c4ccoc4)OC(=O)[C@H]4O[C@]43[C@@]21C [GEDUNIN] | very modest competition; also recorded: poorly compete with Keap1 labeling | immediate activation but gradual stabilization over time; also recorded: immediate effect | 222 | 184 | 4812 | 3708 | toxicity in isolated neurons (Immature neurons [3]): did not induce toxicity in isolated neurons; astrocyte-dependent neuroprotection (primary immature neurons): induced significant neuroprotection; GSH in astrocytes (astrocytes): clearly show a boost in GSH |
| COC1=C2C[C@@H](C)C[C@H](OC)[C@H](O)[C@@H](C)/C=C(\C)[C@H](OC(N)=O)[C@@H](OC)/C=C\C=C(/C)C(=O)NC(=CC1=O)C2=O [geldanamycin, reference compound] | – | – | – | – | – | – | activation effect ([2]; in the range of 0.5-1.5 μM): 2-3 fold |
| Cc1cc(C2CCCCC2)n(O)c(=O)c1 [ciclopirox, reference compound] | no competition with Keap1 labeling | – | – | – | – | – | – |
| C[S+]([O-])CCCCN=C=S (stereo not shown) [sulforaphane, reference compound] | – | immediate activation but gradual stabilization over time | – | – | – | – | competition with Keap1 labeling by STCA (FLAG-Keap1): decent competition; also recorded: inhibits Keap1 labeling completely |
| CCCOc1ccc2nc(NC(=O)OC)[nH]c2c1 [OXIBENDAZOLE, reference compound] | – | – | 38 | 36 | – | – | 100 nL (luminescence) (Nrf2-Keap1 complex; [7]): 1164; 200 nL (luminescence) (Nrf2-Keap1 complex; [8]): 1064 |
| C=C(CC)C(=O)c1ccc(OCC(=O)O)c(Cl)c1Cl [reference compound] | – | – | 139 | 156 | 2088 | 3604 | – |
| CC(C)=CCC[C@@H](C)[C@@H]1CC[C@]2(C)C3=C(CC[C@@]12C)[C@@]1(C)CC[C@H](O)C(C)(C)[C@@H]1CC3 [EUPHOL] | – | – | 138 | 74 | 1572 | 2064 | – |
| COC(=O)Nc1nc2ccc(Sc3ccccc3)cc2[nH]1 [FENBENDAZOLE, reference compound] | – | – | 224 | -24 | – | – | 100 nL (luminescence) (Nrf2-Keap1 complex; [7]): 4908; 200 nL (luminescence) (Nrf2-Keap1 complex; [8]): 92 |
| CC(=O)Oc1cc(-c2coc3cc(OC(C)=O)c(OC(C)=O)c(OC(C)=O)c3c2=O)cc(OC(C)=O)c1OC(C)=O [IRIGINOLHEXAACEATATE] | – | – | 65 | 58 | 1350 | 1208 | – |
| Nc1ccccc1N [oPD, ortho-phenylene diamine] | – | – | – | – | – | – | lag-period of reporter activation [2]: 40 to 50 min |
| C[C@@](Cc1ccc(O)c(O)c1)(NN)C(=O)O [CARBIDOPA, reference compound] | – | – | 217 | 67 | 2262 | 1900 | – |
| COC(=O)c1c(C)cc(O)cc1O [METHYLORSELLINATE] | – | – | 31 | 1 | 640 | 368 | – |
| CC(=O)Nc1ccc(O)cc1 [ACETAMINOPHEN, reference compound] | – | – | 53 | 32 | – | – | 100 nL (luminescence) (Nrf2-Keap1 complex): 996; 200 nL (luminescence) (Nrf2-Keap1 complex): 1012; Neh2-luc reporter activation (Nrf2-Keap1 complex): more than 50% |
| CCOc1ccc(C(=O)c2ccc(OC)c(O)c2O)cc1 [2,3-DIHYDROXY-4-METHOXY-4′-ETHOXYBENZOPHENONE] | – | – | 117 | 65 | 2142 | 1324 | – |
